Data: US11345912B2, “Directed evolution of multivalent glycopeptides that tightly bind to target proteins” (Brandeis University, priority 2013, dated 2022)

Tested on: 2G12
Assay: Binding curve and KD determination of 2G12-glycopeptide interaction (radiolabeled glycopeptide, protein G magnetic bead capture, scintillation counting)
Description: The resulting mRNAs were purified by denaturing PAGE or MEGAclear kit (Ambion), and 1 μM RNA was used in PURE system translation (reaction volume of translation varied). Typically, 25 μL of translated reaction was diluted with 100 μL of binding buffer (50 mM Tris-HCl, pH 7.8, 300 mM NaCl, 5 mM β-mercaptoethanol) and 25 μL of Ni-NTA agarose suspension (Qiagen), and tumbled at room temperature for 1 h. The resins were transferred to 0.22 μm spin-filter rinsing with 100 μL of bind buffer, and washed with 3×200 μL of bind buffer and 2×200 μL of wash buffer (50 mM Tris-HCl, pH 7.8, 5 mM β-mercaptoethanol). The bound peptides were eluted with 2×25 μL of 0.1% TFA. The eluted peptides were analyzed by MALDI-TOF MS, using α-Cyano-4-hydroxycinnamic acid matrix (Sigma), with or without desalting with ZipTip C18 resin (Millipore). For calibration of MALDI-TOF-MS, at least two of the following standards, bovine insulin, E. coli thioredoxin and/or horse apomyoglobin were used. To quantitate peptide yields, the radioactivities were measured by liquid scintillation counting. For the click reaction, the translated and purified peptides were mixed with 0.1% (v/v) Triton X-100, and then dialyzed against H2O containing 0.1% (v/v) Triton X-100 using Slide-A-Lyzer MINI Dialysis Devices, 3.5K MWCO (Thermo Scientific) overnight to desalt. After dialysis, the peptides were divided into two portions: one was glycosylated via the click reaction, while the other was saved as a non-glycosylated peptide control. […] The glycosylated peptide (<4 pmol) was incubated with 100 nM 2G12 in selection buffer (40 μL) at room temp. The solution was then tumbled 30 min with 0.12 mg of equilibrated Dynabeads Protein G to capture 2G12-glycopeptide complex. Beads were then washed with 3×40 μL of selection buffer and resuspended in 10 μL of selection buffer. The resuspended beads were heated at 70° C. for 30 min to denature 2G12 and elute glycopeptides, chilled on ice for 5 min, and tumbled at room temperature for 10 min. The magnetically isolated supernatant was recovered and the beads were rinsed with 10 μL of selection buffer.
Then, the solution was added to 0.12 mg of pre-equilibrated Dynabeads Protein G and tumbled at room temperature for 30 min. The supernatant was removed and the beads were washed with 3×40 μL of selection buffer. The radioactivities of the supernatant and wash solutions were measured by liquid scintillation counting as unbound fractions. […] The beads were resuspended in 40 μL of selection buffer, heated at 70° C. for 30 min to elute the bound glycopeptides, chilled on ice for 5 min, and tumbled at room temperature for 10 min. The supernatant was removed, and the beads were washed with 40 μL of selection buffer and resuspended in 40 μL of selection buffer. The radioactivities of these solutions and suspensions were measured by liquid scintillation counting separately and the values were combined as apparent bound fractions. […] All experiments were done at least in triplicate. KDs were calculated as described in the footnote of Table 4 (below).

| SMILES | tolerance of Cys substitutions for 2G12 binding (in words) (Cys to Ser mutants, Table 6) | Fmax [%] (Table 4, maximal fraction bound from curve fit, error = standard error of fit) | Kd (Table 4, ribosomally translated radiolabeled glycopeptide with His6/FLAG tag, room temperature, fit Fbound=(Fmax[2G12])/(KD+[2G12]), error = standard error of fit) [nM] | Fmax [%] (Table 6 mutational analysis, radioactive bead binding assay) | Kd (Table 6 mutational analysis, radioactive bead binding assay, ribosomally translated) [nM] |
| --- | --- | --- | --- | --- | --- |
| CC[C@H](C)[C@H](NC(=O)[C@H](CCC(N)=O)NC(=O)[C@H](CCCCN)NC(=O)[C@H](CC(C)C)NC(=O)[C@H](Cc1c[nH]cn1)NC(=O)[C@H](CC(C)C)NC(=O)[C@@H](NC(=O)[C@H](CC(=O)O)NC(=O)[C@H](CCc1cn(C2CCC(OC3O[C@H](CO[C@H]4O[C@H](CO[C@H]5O[C@H](CO)[C@@H](O)[C@H](O)[C@@H]5O[C@H]5O[C@H](CO)[C@@H](O)[C@H](O)[C@@H]5O)[C@@H](O)[C@H](O[C@H]5O[C@H](CO)[C@@H](O)[C@H](O)[C@@H]5O[C@H]5O[C@H](CO)[C@@H](O)[C@H](O)[C@@H]5O)[C@@H]4O)[C@@H](O)[C@H](O[C@H]4O[C@H](CO)[C@@H](O)[C@H](O)[C@@H]4O[C@H]4O[C@H](CO)[C@@H](O)[C@H](O)[C@@H]4O[C@H]4O[C@H](CO)[C@@H](O)[C@H](O)[C@@H]4O)[C@@H]3O)CC2)nn1)NC=O)[C@@H](C)O)C(=O)NCC(=O)NCC(=O)N[C@@H](CCc1cn(C2CCC(OC3O[C@H](CO[C@H]4O[C@H](CO[C@H]5O[C@H](CO)[C@@H](O)[C@H](O)[C@@H]5O[C@H]5O[C@H](CO)[C@@H](O)[C@H](O)[C@@H]5O)[C@@H](O)[C@H](O[C@H]5O[C@H](CO)[C@@H](O)[C@H](O)[C@@H]5O[C@H]5O[C@H](CO)[C@@H](O)[C@H](O)[C@@H]5O)[C@@H]4O)[C@@H](O)[C@H](O[C@H]4O[C@H](CO)[C@@H](O)[C@H](O)[C@@H]4O[C@H]4O[C@H](CO)[C@@H](O)[C@H](O)[C@@H]4O[C@H]4O[C@H](CO)[C@@H](O)[C@H](O)[C@@H]4O)[C@@H]3O)CC2)nn1)C(=O)N1CCC[C@H]1C(=O)N[C@@H](CC(N)=O)C(=O)N[C@@H](CS)C(=O)N[C@H](C(=O)N[C@H](C(=O)N[C@@H](CCC(N)=O)C(=O)N[C@@H](CCC(N)=O)C(=O)N[C@@H](CC(=O)O)C(=O)N[C@H](C(=O)N[C@@H](CCCNC(=N)N)C(=O)N[C@@H](CCc1cn(C2CCC(OC3O[C@H](CO[C@H]4O[C@H](CO[C@H]5O[C@H](CO)[C@@H](O)[C@H](O)[C@@H]5O[C@H]5O[C@H](CO)[C@@H](O)[C@H](O)[C@@H]5O)[C@@H](O)[C@H](O[C@H]5O[C@H](CO)[C@@H](O)[C@H](O)[C@@H]5O[C@H]5O[C@H](CO)[C@@H](O)[C@H](O)[C@@H]5O)[C@@H]4O)[C@@H](O)[C@H](O[C@H]4O[C@H](CO)[C@@H](O)[C@H](O)[C@@H]4O[C@H]4O[C@H](CO)[C@@H](O)[C@H](O)[C@@H]4O[C@H]4O[C@H](CO)[C@@H](O)[C@H](O)[C@@H]4O)[C@@H]3O)CC2)nn1)C(=O)N[C@H](C(=O)N[C@@H](CO)C(=O)N[C@H](C(=O)N1CCC[C@H]1C(=O)N[C@@H](Cc1ccc(O)cc1)C(=O)N[C@H](C(=O)N[C@@H](Cc1ccc(O)cc1)C(=O)N[C@H](C(=O)N[C@@H](Cc1c[nH]c2ccccc12)C(=O)N1CCC[C@H]1C(=O)NCC(=O)N[C@@H](CO)C(=O)NCC(=O)N[C@@H](CO)C(=O)N[C@@H](CC(C)C)C(=O)NCC(=O)N[C@@H](Cc1c[nH]cn1)C(=O)N[C@@H](Cc1c[nH]cn1)C(=O)N[C@@H](Cc1c[nH]cn1)C(=O)N[C@@H](Cc1c[nH]cn1)C(=O)N[C@@H](Cc1c[nH]cn1)C(=O)N[C@@H](Cc1c[nH]cn1)C(=O)N[C@@H](CCCNC(=N)N)C(=O)N[C@@H](CC(=O)O)C(=O)N[C@@H](Cc1ccc(O)cc1)C(=O)N[C@@H](CCCCN)C(=O)N[C@@H](CC(=O)O)C(=O)N[C@@H](CC(=O)O)C(=O)N[C@@H](CC(=O)O)C(=O)N[C@@H](CC(=O)O)C(=O)N[C@@H](CCCCN)C(=O)O)[C@@H](C)O)[C@@H](C)O)[C@@H](C)CC)[C@@H](C)O)C(C)C)[C@@H](C)O)[C@@H](C)CC (some centres unmarked) [Clone 10F3, XDTLHLKQIGGXPNCITQQDVRXTSIPYTYTWP] | tolerated | 100 ± 2.7 | 3 ± 0.31 |  |  |
| CC[C@H](C)[C@H](NC(=O)[C@H](CCC(N)=O)NC(=O)[C@H](CCCCN)NC(=O)[C@H](CC(C)C)NC(=O)[C@H](Cc1c[nH]cn1)NC(=O)[C@H](CC(C)C)NC(=O)[C@@H](NC(=O)[C@H](CC(=O)O)NC(=O)[C@H](CCc1cn(C2CCC(OC3O[C@H](CO[C@H]4O[C@H](CO[C@H]5O[C@H](CO)[C@@H](O)[C@H](O)[C@@H]5O[C@H]5O[C@H](CO)[C@@H](O)[C@H](O)[C@@H]5O)[C@@H](O)[C@H](O[C@H]5O[C@H](CO)[C@@H](O)[C@H](O)[C@@H]5O[C@H]5O[C@H](CO)[C@@H](O)[C@H](O)[C@@H]5O)[C@@H]4O)[C@@H](O)[C@H](O[C@H]4O[C@H](CO)[C@@H](O)[C@H](O)[C@@H]4O[C@H]4O[C@H](CO)[C@@H](O)[C@H](O)[C@@H]4O[C@H]4O[C@H](CO)[C@@H](O)[C@H](O)[C@@H]4O)[C@@H]3O)CC2)nn1)NC=O)[C@@H](C)O)C(=O)NCC(=O)NCC(=O)N[C@@H](CCc1cn(C2CCC(OC3O[C@H](CO[C@H]4O[C@H](CO[C@H]5O[C@H](CO)[C@@H](O)[C@H](O)[C@@H]5O[C@H]5O[C@H](CO)[C@@H](O)[C@H](O)[C@@H]5O)[C@@H](O)[C@H](O[C@H]5O[C@H](CO)[C@@H](O)[C@H](O)[C@@H]5O[C@H]5O[C@H](CO)[C@@H](O)[C@H](O)[C@@H]5O)[C@@H]4O)[C@@H](O)[C@H](O[C@H]4O[C@H](CO)[C@@H](O)[C@H](O)[C@@H]4O[C@H]4O[C@H](CO)[C@@H](O)[C@H](O)[C@@H]4O[C@H]4O[C@H](CO)[C@@H](O)[C@H](O)[C@@H]4O)[C@@H]3O)CC2)nn1)C(=O)N1CCC[C@H]1C(=O)N[C@@H](CC(N)=O)C(=O)N[C@@H](CO)C(=O)N[C@H](C(=O)N[C@H](C(=O)N[C@@H](CCC(N)=O)C(=O)N[C@@H](CCC(N)=O)C(=O)N[C@@H](CC(=O)O)C(=O)N[C@H](C(=O)N[C@@H](CCCNC(=N)N)C(=O)N[C@@H](CCc1cn(C2CCC(OC3O[C@H](CO[C@H]4O[C@H](CO[C@H]5O[C@H](CO)[C@@H](O)[C@H](O)[C@@H]5O[C@H]5O[C@H](CO)[C@@H](O)[C@H](O)[C@@H]5O)[C@@H](O)[C@H](O[C@H]5O[C@H](CO)[C@@H](O)[C@H](O)[C@@H]5O[C@H]5O[C@H](CO)[C@@H](O)[C@H](O)[C@@H]5O)[C@@H]4O)[C@@H](O)[C@H](O[C@H]4O[C@H](CO)[C@@H](O)[C@H](O)[C@@H]4O[C@H]4O[C@H](CO)[C@@H](O)[C@H](O)[C@@H]4O[C@H]4O[C@H](CO)[C@@H](O)[C@H](O)[C@@H]4O)[C@@H]3O)CC2)nn1)C(=O)N[C@H](C(=O)N[C@@H](CO)C(=O)N[C@H](C(=O)N1CCC[C@H]1C(=O)N[C@@H](Cc1ccc(O)cc1)C(=O)N[C@H](C(=O)N[C@@H](Cc1ccc(O)cc1)C(=O)N[C@H](C(=O)N[C@@H](Cc1c[nH]c2ccccc12)C(=O)N1CCC[C@H]1C(=O)NCC(=O)N[C@@H](CO)C(=O)NCC(=O)N[C@@H](CO)C(=O)N[C@@H](CC(C)C)C(=O)NCC(=O)N[C@@H](Cc1c[nH]cn1)C(=O)N[C@@H](Cc1c[nH]cn1)C(=O)N[C@@H](Cc1c[nH]cn1)C(=O)N[C@@H](Cc1c[nH]cn1)C(=O)N[C@@H](Cc1c[nH]cn1)C(=O)N[C@@H](Cc1c[nH]cn1)C(=O)N[C@@H](CCCNC(=N)N)C(=O)N[C@@H](CC(=O)O)C(=O)N[C@@H](Cc1ccc(O)cc1)C(=O)N[C@@H](CCCCN)C(=O)N[C@@H](CC(=O)O)C(=O)N[C@@H](CC(=O)O)C(=O)N[C@@H](CC(=O)O)C(=O)N[C@@H](CC(=O)O)C(=O)N[C@@H](CCCCN)C(=O)O)[C@@H](C)O)[C@@H](C)O)[C@@H](C)CC)[C@@H](C)O)C(C)C)[C@@H](C)O)[C@@H](C)CC (some centres unmarked) [Clone 10F3-C15S] |  |  |  | 63 | 2.91 |
